Key:
[1] = system: Mycobacterium tuberculosis; assay: Antitubercular activity against non-replicating Mycobacterium tuberculosis H37Rv by LORA; type: functional
[2] = system: Mycobacterium tuberculosis; assay: Antitubercular activity against actively growing Mycobacterium tuberculosis H37Rv by microplate alamar blue assay; type: functional
[3] = system: Vero; assay: Cytotoxicity against Vero cells after 3 days; type: cell-based; conditions: Chlorocebus sabaeus, 72 h

C[N+](C)(CCCN1c2ccccc2Sc2ccc(Cl)cc21)Cc1ccc([N+](=O)[O-])cc1
MIC [1]: 27.5 µM | MIC [2]: 12.3 µM

CC(CN1c2ccccc2Sc2ccccc21)[N+](C)(C)Cc1ccc([N+](=O)[O-])cc1 (stereo unspecified)
MIC [1]: > 128 µM | MIC [2]: 20.7 µM

C[N+](C)(CCCN1c2ccccc2Sc2ccccc21)Cc1ccc(Cl)cc1
MIC [1]: 15.4 µM | MIC [2]: 9.31 µM | IC50 [3]: > 64 µM

C[N+](C)(CCCN1c2ccccc2Sc2ccccc21)Cc1ccccc1Cl
MIC [1]: 24.6 µM | MIC [2]: 14.3 µM

C[N+](C)(CCCN1c2ccccc2Sc2ccccc21)Cc1ccc(F)cc1
MIC [1]: 32.9 µM | MIC [2]: 14.6 µM

COc1ccc(C[N+](C)(C)C(C)CN2c3ccccc3Sc3ccccc32)cc1 (stereo unspecified)
MIC [1]: 105 µM | MIC [2]: 14.4 µM

Cc1ccc(C[N+](C)(C)CCCN2c3ccccc3Sc3ccccc32)cc1
MIC [1]: 15 µM | MIC [2]: 9.9 µM | IC50 [3]: > 128 µM

C[N+](C)(CCCN1c2ccccc2Sc2ccc(Cl)cc21)Cc1ccccc1
MIC [1]: 11.1 µM | MIC [2]: 7.33 µM | IC50 [3]: > 128 µM

C[N+](C)(CCCN1c2ccccc2Sc2ccc(C(F)(F)F)cc21)Cc1ccccc1Cl
MIC [1]: 7.5 µM | MIC [2]: 7.3 µM | IC50 [3]: > 128 µM

C[N+](C)(CCCN1c2ccccc2Sc2ccc(C(F)(F)F)cc21)Cc1ccc(F)cc1
MIC [1]: 10 µM | MIC [2]: 6.4 µM | IC50 [3]: > 128 µM

C[N+](C)(CCCN1c2ccccc2Sc2ccc(Cl)cc21)Cc1cccc(Cl)c1
MIC [1]: 6.7 µM | MIC [2]: 4.5 µM | IC50 [3]: > 128 µM

C[N+](C)(CCCN1c2ccccc2Sc2ccc(Cl)cc21)Cc1ccc(F)cc1
MIC [1]: 13.7 µM | MIC [2]: 7.6 µM | IC50 [3]: > 128 µM

Cc1ccc(C[N+](C)(C)CCCN2c3ccccc3Sc3ccc(C(F)(F)F)cc32)cc1
MIC [1]: 6.9 µM | MIC [2]: 6.8 µM | IC50 [3]: > 128 µM

CC(CN1c2ccccc2Sc2ccccc21)[N+](C)(C)Cc1ccccc1 (stereo unspecified)
MIC [1]: 99.7 µM | MIC [2]: 31.6 µM

C[N+](C)(CCCN1c2ccccc2Sc2ccc(C(F)(F)F)cc21)Cc1ccc(Cl)cc1
MIC [1]: 6.1 µM | MIC [2]: 3.81 µM | IC50 [3]: > 128 µM

C[N+](C)(CCCN1c2ccccc2Sc2ccc(Cl)cc21)Cc1ccc(Cl)cc1
MIC [1]: 6.7 µM | MIC [2]: 6.06 µM | IC50 [3]: > 128 µM

C[N+](C)(CCCN1c2ccccc2Sc2ccc(Cl)cc21)Cc1ccccc1Cl
MIC [1]: 7.6 µM | MIC [2]: 5.6 µM | IC50 [3]: > 128 µM

Cc1ccc(C[N+](C)(C)CCCN2c3ccccc3Sc3ccc(Cl)cc32)cc1
MIC [1]: 7.5 µM | MIC [2]: 4.7 µM | IC50 [3]: > 128 µM

C[N+](C)(CCCN1c2ccccc2Sc2ccccc21)Cc1cccc(Cl)c1
MIC [1]: 13 µM | MIC [2]: 7.5 µM | IC50 [3]: > 128 µM

Cc1ccc(C[N+](C)(C)C(C)CN2c3ccccc3Sc3ccccc32)cc1 (stereo unspecified)
MIC [1]: 34.7 µM | MIC [2]: 12.1 µM

C[N+](C)(CCCN1c2ccccc2Sc2ccc(C(F)(F)F)cc21)Cc1cccc(Cl)c1
MIC [1]: 5.8 µM | MIC [2]: 3.8 µM | IC50 [3]: > 128 µM

COc1ccc(C[N+](C)(C)CCCN2c3ccccc3Sc3ccc(Cl)cc32)cc1
MIC [1]: 11.9 µM | MIC [2]: 8.5 µM | IC50 [3]: > 128 µM

C=CC[N+](C)(C)CCCN1c2ccccc2Sc2ccc(Cl)cc21
MIC [1]: 106 µM | MIC [2]: 30.6 µM
